Like-named read-outs stand apart in the source and are kept apart here.
Legend:
human recombinant HDAC1 = biological target: T1, human recombinant HDAC1 (Homo sapiens, UniProt Q13547); assay: HDAC1 enzyme activity inhibition (HDAC Fluorimetric Drug Discovery Kit); type: biochemical; conditions: read-out: HDAC1
T1 construct: purchased Enzo Life Science, Inc. BML-SE456
How it was run: (§1)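 Fluorimetric deacetylase read-out. 5-fold compound dilutions; […] enzyme, 10 μM substrate; 30° C, 60 min; developer 30 min.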

human recombinant HDAC6 = biological target: T2, human recombinant HDAC6 (Homo sapiens, UniProt Q9UBN7); assay: HDAC6 enzyme activity inhibition (HDAC Fluorimetric Drug Discovery Kit); type: biochemical
T2 construct: purchased Calbiochem Inc. 382180
T2 sequence (Q9UBN7 1-1215): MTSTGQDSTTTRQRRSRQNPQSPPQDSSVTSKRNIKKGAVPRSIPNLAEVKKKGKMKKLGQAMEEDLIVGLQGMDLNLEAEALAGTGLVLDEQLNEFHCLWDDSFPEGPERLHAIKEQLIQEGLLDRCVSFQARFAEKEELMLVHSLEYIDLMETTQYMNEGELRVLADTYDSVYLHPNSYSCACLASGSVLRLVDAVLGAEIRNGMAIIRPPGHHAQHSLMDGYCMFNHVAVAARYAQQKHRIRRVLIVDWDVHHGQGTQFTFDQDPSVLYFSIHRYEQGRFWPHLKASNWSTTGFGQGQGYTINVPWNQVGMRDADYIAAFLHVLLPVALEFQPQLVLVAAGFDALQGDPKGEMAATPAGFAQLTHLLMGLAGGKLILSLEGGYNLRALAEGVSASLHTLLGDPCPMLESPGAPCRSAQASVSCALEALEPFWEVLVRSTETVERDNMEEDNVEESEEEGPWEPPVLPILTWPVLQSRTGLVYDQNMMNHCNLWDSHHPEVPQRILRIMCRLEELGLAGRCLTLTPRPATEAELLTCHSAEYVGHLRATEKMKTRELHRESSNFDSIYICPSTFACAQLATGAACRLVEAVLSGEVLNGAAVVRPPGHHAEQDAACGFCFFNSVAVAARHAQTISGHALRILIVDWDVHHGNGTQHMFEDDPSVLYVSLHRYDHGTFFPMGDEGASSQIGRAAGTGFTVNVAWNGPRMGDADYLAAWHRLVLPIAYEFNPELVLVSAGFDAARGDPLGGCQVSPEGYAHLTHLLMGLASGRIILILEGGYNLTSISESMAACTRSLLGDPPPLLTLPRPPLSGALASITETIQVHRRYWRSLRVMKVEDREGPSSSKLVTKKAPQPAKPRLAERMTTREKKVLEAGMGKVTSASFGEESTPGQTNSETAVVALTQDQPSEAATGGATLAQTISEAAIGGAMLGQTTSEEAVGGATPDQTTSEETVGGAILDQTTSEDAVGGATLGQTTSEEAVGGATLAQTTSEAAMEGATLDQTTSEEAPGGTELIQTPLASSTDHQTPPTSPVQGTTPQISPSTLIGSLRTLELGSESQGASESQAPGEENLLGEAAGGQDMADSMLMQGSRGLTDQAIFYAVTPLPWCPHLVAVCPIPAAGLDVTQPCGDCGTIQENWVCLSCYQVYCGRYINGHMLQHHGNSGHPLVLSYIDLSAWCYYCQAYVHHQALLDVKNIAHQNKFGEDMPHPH
How it was run: as §1

[1] = human recombinant HDAC1, IC50 calculated with GraphPad Prism
[2] = human recombinant HDAC6, IC50 calculated with GraphPad Prism
[3] = human recombinant HDAC1, Fluor de Lys substrate, 30° C. 60 minutes
[4] = human recombinant HDAC6, same protocol as HDAC1

T1 sequence (Q13547 whole entry): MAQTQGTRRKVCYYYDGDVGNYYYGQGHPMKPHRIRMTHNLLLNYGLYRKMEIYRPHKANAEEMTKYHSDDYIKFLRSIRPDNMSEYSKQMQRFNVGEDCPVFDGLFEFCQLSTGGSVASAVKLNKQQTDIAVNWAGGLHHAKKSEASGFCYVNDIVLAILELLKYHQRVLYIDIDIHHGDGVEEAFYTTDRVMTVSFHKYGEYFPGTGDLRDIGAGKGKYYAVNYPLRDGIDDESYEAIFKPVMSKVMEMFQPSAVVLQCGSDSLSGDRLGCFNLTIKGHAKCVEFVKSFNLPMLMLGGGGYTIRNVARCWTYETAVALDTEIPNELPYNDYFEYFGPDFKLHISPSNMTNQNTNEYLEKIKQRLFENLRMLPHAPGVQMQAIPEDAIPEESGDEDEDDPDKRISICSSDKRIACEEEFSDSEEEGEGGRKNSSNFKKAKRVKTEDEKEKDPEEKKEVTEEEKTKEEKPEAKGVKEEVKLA

SMILES | IC50 (human recombinant HDAC1; [1]) [µM] | HDAC6 selectivity (fold) (human recombinant HDAC6; HDAC1 IC50 / HDAC6 IC50) | IC50 (human recombinant HDAC6; [2]) [µM] | IC50 (human recombinant HDAC1; [3]) [µM] | HDAC6 selectivity (fold) (human recombinant HDAC6; HDAC6 over HDAC1) | IC50 (human recombinant HDAC6; [4]) [µM]
FC(F)c1cccc(-c2cn(Cc3ccc(-c4nnc(C(F)F)o4)cc3)nn2)c1 [Compound 4487, 2-(difluoromethyl)-5-(4-((4-(3-(difluoromethyl)phenyl)-1H-1,2,3-triazol-1-yl)methyl)phenyl)-1,3,4-oxadiazole] | > 50 | 627 | 0.0797 | – | – | –
Fc1cc(-c2nnc(C(F)F)o2)cnc1Cn1cc(-c2ccccc2)nn1 [Compound 17347, 2-(difluoromethyl)-5-(5-fluoro-6-((4-phenyl-1H-1,2,3-triazol-1-yl)methyl)pyridin-3-yl)-1,3,4-oxadiazole] | – | – | – | > 50 | 628 | 0.0796
Fc1cc(-c2nnc(C(F)F)o2)ccc1Cn1cc(-c2cccc(CN3CCC3)c2)nn1 [Compound 4402, 2-(4-((4-(3-(azetidin-1-ylmethyl)phenyl)-1H-1,2,3-triazol-1-yl)methyl)-3-fluorophenyl)-5-(difluoromethyl)-1,3,4-oxadiazole] | > 50 | 677 | 0.0738 | – | – | –
Fc1cc(-c2nnc(C(F)F)o2)ccc1Cn1cc(-c2ccc(CNC3CCC(F)(F)CC3)cc2)nn1 [Compound 4477, N-(4-(1-(4-(5-(difluoromethyl)-1,3,4-oxadiazol-2-yl)-2-fluorobenzyl)-1H-1,2,3-triazol-4-yl)benzyl)-4,4-difluorocyclohexan-1-amine] | > 50 | 2008 | 0.0249 | – | – | –
CN1Cc2cccc(-c3cn(Cc4ccc(-c5nnc(C(F)F)o5)cn4)nn3)c2C1 [Compound 4595, 2-(difluoromethyl)-5-(6-((4-(2-methylisoindolin-4-yl)-1H-1,2,3-triazol-1-yl)methyl)pyridin-3-yl)-1,3,4-oxadiazole] | – | – | – | > 50 | 1046 | 0.0478
Fc1cc(-c2nnc(C(F)F)o2)ccc1Cn1cc(-c2ccc(CNC3COC3)cc2)nn1 [Compound 4469, N-(4-(1-(4-(5-(difluoromethyl)-1,3,4-oxadiazol-2-yl)-2-fluorobenzyl)-1H-1,2,3-triazol-4-yl)benzyl)oxetan-3-amine] | > 50 | 847 | 0.059 | – | – | –
Fc1cc(-c2nnc(C(F)F)o2)ccc1Cn1cc(-c2cccc(N3CCN(C4CCC4)CC3)c2F)nn1 [Compound 4579, 2-(4-((4-(3-(4-cyclobutylpiperazin-1-yl)-2-fluorophenyl)-1H-1,2,3-triazol-1-yl)methyl)-3-fluorophenyl)-5-(difluoromethyl)-1,3,4-oxadiazole] | – | – | – | > 50 | 1256 | 0.0398
CC(C)N1CCc2cc(-c3cn(Cc4ccc(-c5nnc(C(F)F)o5)cc4F)nn3)sc2C1 [Compound 4501] | – | – | – | > 50 | 365 | 0.137
Fc1cc(-c2nnc(C(F)F)o2)ccc1Cn1cc(-c2ccccc2CNC2CCC2)nn1 [Compound 4589, N-(2-(1-(4-(5-(difluoromethyl)-1,3,4-oxadiazol-2-yl)-2-fluorobenzyl)-1H-1,2,3-triazol-4-yl)benzyl)cyclobutanamine] | – | – | – | > 50 | 172 | 0.29
Fc1cc(-c2nnc(C(F)F)o2)ccc1Cn1cc(-c2ccnc3[nH]ccc23)nn1 [Compound 4526, 2-(4-((4-(1H-pyrrolo[2,3-b]pyridin-4-yl)-1H-1,2,3-triazol-1-yl)methyl)-3-fluorophenyl)-5-(difluoromethyl)-1,3,4-oxadiazole] | – | – | – | > 50 | 3846 | 0.013
CCC(F)(CC)CN1CCC(c2cn(Cc3ccc(-c4nnc(C(F)F)o4)cn3)nn2)CC1 [Compound 3896, 2-(difluoromethyl)-5-(6-((4-(1-(2-ethyl-2-fluorobutyl)piperidin-4-yl)-1H-1,2,3-triazol-1-yl)methyl)pyridin-3-yl)-1,3,4-oxadiazole] | > 50 | 187 | 0.267 | – | – | –
FC(F)c1nnc(-c2ccc(Cn3cc(-c4cccc(C5CN(C6CCC6)C5)c4)nn3)cc2)o1 [Compound 4510, 2-(4-((4-(3-(1-cyclobutylazetidin-3-yl)phenyl)-1H-1,2,3-triazol-1-yl)methyl)phenyl)-5-(difluoromethyl)-1,3,4-oxadiazole] | – | – | – | > 50 | 2173 | 0.023
CN1CCC(Nc2cccc(-c3cn(Cc4ccc(-c5nnc(C(F)F)o5)cn4)nn3)c2)CC1 [Compound 3830, N-(3-(1-((5-(5-(difluoromethyl)-1,3,4-oxadiazol-2-yl)pyridin-2-yl)methyl)-1H-1,2,3-triazol-4-yl)phenyl)-1-methylpiperidin-4-amine] | > 50 | 219 | 0.0228 | – | – | –
Fc1cc(-c2nnc(C(F)F)o2)ccc1Cn1cc(-c2ccc3cc[nH]c3c2)nn1 [Compound 4077, 2-(4-((4-(1H-indol-6-yl)-1H-1,2,3-triazol-1-yl)methyl)-3-fluorophenyl)-5-(difluoromethyl)-1,3,4-oxadiazole] | > 50 | 591 | 0.0845 | – | – | –
FC(F)c1nnc(-c2ccc(Cc3nnc(-c4ccccc4)o3)cc2)o1 [Compound 3980, 2-(difluoromethyl)-5-(4-((5-phenyl-1,3,4-oxadiazol-2-yl)methyl)phenyl)-1,3,4-oxadiazole] | > 50 | 272 | 0.184 | – | – | –
CC(=O)N1CCC(F)(c2cn(Cc3ccc(-c4nnc(C(F)F)o4)cn3)nn2)CC1 [Compound 4009, 1-(4-(1-((5-(5-(difluoromethyl)-1,3,4-oxadiazol-2-yl)pyridin-2-yl)methyl)-1H-1,2,3-triazol-4-yl)-4-fluoropiperidin-1-yl)ethan-1-one] | > 50 | 405 | 0.123 | – | – | –
Fc1cc(-c2nnc(C(F)F)o2)ccc1Cn1cc(-c2ccc(CN3CCCC3)nc2)nn1 [Compound 18175, 2-(difluoromethyl)-5-(3-fluoro-4-((4-(6-(pyrrolidin-1-ylmethyl)pyridin-3-yl)-1H-1,2,3-triazol-1-yl)methyl)phenyl)-1,3,4-oxadiazole] | – | – | – | > 50 | 1184 | 0.0422
Fc1cc(-c2nnc(C(F)F)o2)cnc1Cn1cc(-c2ccc(CN3CCC3)cc2Cl)nn1 [Compound 19099, 2-(6-((4-(4-(azetidin-1-ylmethyl)-2-chlorophenyl)-1H-1,2,3-triazol-1-yl)methyl)-5-fluoropyridin-3-yl)-5-(difluoromethyl)-1,3,4-oxadiazole] | – | – | – | > 50 | 1061 | 0.0471
CCN1CC(C(=O)Nc2cccc(-c3cn(Cc4ccc(-c5nnc(C(F)F)o5)cn4)nn3)c2)C1 [Compound 4464, N-(3-(1-((5-(5-(difluoromethyl)-1,3,4-oxadiazol-2-yl)pyridin-2-yl)methyl)-1H-1,2,3-triazol-4-yl)phenyl)-1-ethylazetidin-3-carboxamide] | > 50 | 1650 | 0.0303 | – | – | –
Fc1cc(-c2nnc(C(F)F)o2)ccc1Cn1cc(-c2ccccc2CN2CCCC2)nn1 [Compound 4585, 2-(difluoromethyl)-5-(3-fluoro-4-((4-(2-(pyrrolidin-1-ylmethyl)phenyl)-1H-1,2,3-triazol-1-yl)methyl)phenyl)-1,3,4-oxadiazole] | – | – | – | > 50 | 237 | 0.21
Fc1cccnc1-c1cn(Cc2ccc(-c3nnc(C(F)F)o3)cn2)nn1 [Compound 4178] | > 50 | 896 | 0.0558 | – | – | –

Source: patent publication US20230257372A1 (CHONG KUN DANG PHARMACEUTICAL CORP., priority 2020, published 2023)
